# Data as given in the C3SDB collision cross section collection.
# Key:
# [1] = instrument: DT, stepped-field
# [2] = instrument: DT, single field, calibrated with Agilent tune mix (Agilent)
smiles,measurement,setting,value
Nc1c(O)cccc1C(=O)CC(N)C(=O)O (racemic) [3-Hydroxy-DL-kynurenine],collision cross section (N2),[1]; [M+H]+,157.67 Å²
same,collision cross section (N2),[1]; [M+Na]+,160.83 Å²
OC[C@H]1O[C@@](CO)(OC[C@@]2(O[C@H]3O[C@H](CO)[C@@H](O)[C@H](O)[C@H]3O)O[C@H](CO)[C@@H](O)[C@@H]2O)[C@@H](O)[C@@H]1O [1-Kestose],collision cross section (N2),[1]; [M+Na]+,205.43 Å²
Nc1nc(=O)c2ncn([C@H]3C[C@H](O)[C@@H](COP(=O)(O)O)O3)c2[nH]1 [2'-Deoxyguanosine 5'-Monophosphate],collision cross section (N2),[1]; [M+H]+,178.96 Å²
same,collision cross section (N2),[1]; [M+Na]+,173.87 Å²
NCCP(=O)(O)O [2-Aminoethylphosphonate],collision cross section (N2),[1]; [M+H]+,132.21 Å²
Cc1ccc2cc3ccccc3cc2c1 [2-Methylanthracene],collision cross section (N2),[1]; [M+H]+,138.61 Å²
Cc1ccc2ccccc2c1 [2-methylnaphthalene],collision cross section (N2),[1]; [M+H]+,124.57 Å²
Cn1cncc1C[C@H](N)C(=O)O [3-Methyl-L-histidine],collision cross section (N2),[1]; [M+H]+,136.57 Å²
Cc1ncsc1CCO [4-Methyl-5-Thiazolethanol],collision cross section (N2),[1]; [M+H]+,145.34 Å²
CCCCC/C=C/C/C=C\C[C@@H]1O[C@@H]1C/C=C\CCCC(=O)O [8(9)-EET],collision cross section (N2),[1]; [M+Na]+,186.83 Å²
CCCCC/C=C\C/C=C\C=C\[C@@H](O)C/C=C\CCCC(=O)O [8S-HETE],collision cross section (N2),[1]; [M+Na]+,187.17 Å²
CCCCC/C=C\C=C\C(=O)CCCCCCCC(=O)O [9-OxoODE],collision cross section (N2),[1]; [M+H]+,184.2 Å²
same,collision cross section (N2),[1]; [M+Na]+,199.5 Å²
CCCCC/C=C\C[C@H]1O[C@H]1C/C=C\C/C=C\CCCC(=O)O [11(12)-EET],collision cross section (N2),[1]; [M+Na]+,187.87 Å²
CCCCC/C=C\C[C@H](O)/C=C/C=C\C/C=C\CCCC(=O)O [12S-HETE],collision cross section (N2),[1]; [M+Na]+,193.33 Å²
COc1ccc(-c2cc(=O)c3c(O)cc(O)cc3o2)cc1 [Acacetin],collision cross section (N2),[1]; [M+H]+,167.06 Å²
O=C1C(=O)c2cccc3cccc1c23 [Acenaphthenequinone],collision cross section (N2),[1]; [M+H]+,145.51 Å²
C1=Cc2cccc3cccc1c23 [Acenaphthylene],collision cross section (N2),[1]; [M+H]+,125.71 Å²
CCCCC/C=C\C/C=C\C/C=C\C/C=C\CCCCCC(=O)O [Adrenic Acid],collision cross section (N2),[1]; [M+H]+,189.41 Å²
same,collision cross section (N2),[1]; [M+Na]+,192.83 Å²
CC1(C)S[C@@H]2[C@H](NC(=O)[C@H](N)c3ccccc3)C(=O)N2[C@H]1C(=O)O [Ampicillin],collision cross section (N2),[1]; [M+H]+,193.17 Å²
same,collision cross section (N2),[1]; [M+Na]+,187.93 Å²
c1cncc(C2CCCCN2)c1 (stereo not given) [Anabasine],collision cross section (N2),[1]; [M+H]+,140.18 Å²
CCCCCCCCCCCCCCCCCC(=O)N[C@@H](CO)[C@H](O)CCCCCCCCCCCCCCC [Cer(36:0)],collision cross section (N2),[2]; [M+HCOO]-,259 Å²
same,collision cross section (N2),[2]; [M+H]+,262 Å²
same,collision cross section (N2),[2]; [M+Na]+,267.7 Å²
same,collision cross section (N2),[2]; [M-H]-,249 Å²
CCCCCCCCCCCCC=CC[C@@H](O)[C@H](CO)NC(=O)CCCCCCCCCCCCCCCCCC [Cer(37:1)],collision cross section (N2),[2]; [M+HCOO]-,258.9 Å²
same,collision cross section (N2),[2]; [M+H]+,263.4 Å²
same,collision cross section (N2),[2]; [M+Na]+,269.8 Å²
CCCCCCCCCCCCCCCCCCCC(=O)N[C@@H](CO)[C@H](O)CCCCCCCCCCCCCCC [Cer(38:0)],collision cross section (N2),[2]; [M+HCOO]-,265.2 Å²
same,collision cross section (N2),[2]; [M+H]+,267.9 Å²
CCCCCCCCCCCCC=CC[C@@H](O)[C@H](CO)NC(=O)CC=CCCCCCCCCCCCCCCCC [Cer(38:2)],collision cross section (N2),[2]; [M+H]+,262.4 Å²
same,collision cross section (N2),[2]; [M+Na]+,262.1 Å²
CCCCCCCCCCCCC=CC[C@@H](O)[C@H](CO)NC(=O)CC=CCCCCCCCCCCCCCCCCCC [Cer(40:2)],collision cross section (N2),[2]; [M+H]+,270.3 Å²
same,collision cross section (N2),[2]; [M+Na]+,271.4 Å²
same,collision cross section (N2),[2]; [M-H]-,259.8 Å²
CCCCCCCCCCCCC=CC[C@@H](O)[C@H](CO)NC(=O)CCCCCCCCCCCCCCCCCCCCCCCC [Cer(43:1)],collision cross section (N2),[2]; [M+H]+,282 Å²
CCCCCCCCCCCCC=CC[C@@H](O)[C@H](CO)NC(=O)CC=CCCCCCCCCCCCCCCCCCCCCCC [Cer(44:2)],collision cross section (N2),[2]; [M+H]+,283.5 Å²
CCCCCCCC/C=C\CCCCCCCCCC(=O)O[C@@H](CO)COC(=O)CCCCCCC/C=C\CCCCCCCC [DG(38:2)],collision cross section (N2),[2]; [M+NH4]+,271.6 Å²
CCCCC/C=C\C/C=C\CCCCCCCCCC(=O)O[C@@H](CO)COC(=O)CCCCCCCCCCCCCCCCCCC [DG(40:2)],collision cross section (N2),[2]; [M+NH4]+,277.7 Å²
CCCCC/C=C\C/C=C\CCCCCCCC(=O)OC[C@@H](O)COP(=O)([O-])OCC[N+](C)(C)C [LPC(18:2)],collision cross section (N2),[2]; [M+HCOO]-,235.2 Å²
same,collision cross section (N2),[2]; [M+H]+,226.8 Å²
same,collision cross section (N2),[2]; [M+Na]+,231.9 Å²
CCCCCCCCCCCCCCCCC(=O)OC[C@@H](O)COP(=O)(O)OCCN [LPE(17:0)],collision cross section (N2),[2]; [M+H]+,217.1 Å²
same,collision cross section (N2),[2]; [M-H]-,210.1 Å²
CCCCC/C=C\C/C=C\CCCCCCCCCC(=O)OC[C@@H](O)COP(=O)(O)OCCN [LPE(20:2)],collision cross section (N2),[2]; [M-H]-,216.4 Å²
CCCCCCCCCCCCCCCCC(=O)OC[C@@H](O)COP(=O)(O)O[C@H]1C(O)C(O)C(O)[C@@H](O)C1O (stereo not given in full) [LPI(17:0)],collision cross section (N2),[2]; [M-H]-,232.6 Å²
CCCCCCCCCCCCCCCC(=O)OC[C@@H](O)COP(=O)(O)OC[C@H](N)C(=O)O [LPS(16:0)],collision cross section (N2),[2]; [M-H]-,216.4 Å²
CCCCCCCC/C=C\CCCCCCCCCC(=O)OC[C@@H](O)COP(=O)(O)OC[C@H](N)C(=O)O [LPS(20:1)],collision cross section (N2),[2]; [M+H]+,231.8 Å²
CCCCC/C=C\C/C=C\C/C=C\CCCCCCC(=O)OC[C@@H](O)COP(=O)(O)OC[C@H](N)C(=O)O [LPS(20:3)],collision cross section (N2),[2]; [M-H]-,221.5 Å²
CCCCC/C=C\C/C=C\C/C=C\C/C=C\CCCCCC(=O)O[C@H](COC(=O)CCCCCCCCCCCCCC)COP(=O)([O-])OCC[N+](C)(C)C [PC(37:4)],collision cross section (N2),[2]; [M+H]+,290.4 Å²
CCCCCCCCCCCCCCCC/C=C\OC[C@H](COP(=O)([O-])OCC[N+](C)(C)C)OC(=O)CCCCCCCCCCCCCCC [PC(p34:0)],collision cross section (N2),[2]; [M+H]+,288.3 Å²
CCCCC/C=C\C/C=C\C/C=C\C/C=C\CCCCCC(=O)O[C@H](CO/C=C\CCCCCCCCCCCCCCCC)COP(=O)([O-])OCC[N+](C)(C)C [PC(p40:4)],collision cross section (N2),[2]; [M+H]+,300.9 Å²
CCCCCCCCCCCCCC/C=C\OC[C@H](COP(=O)(O)OCCN)OC(=O)CCCCCCCCCCCCCCCCC [PE(p34:0)],collision cross section (N2),[2]; [M+H]+,274.6 Å²
CCCCCCCCCCCCCCCC/C=C\OC[C@H](COP(=O)(O)OCCN)OC(=O)CCCCCCCCCCCCCCCCC [PE(p36:0)],collision cross section (N2),[2]; [M+H]+,281.6 Å²
same,collision cross section (N2),[2]; [M-H]-,268.4 Å²
CCCCCCCC/C=C\CCCCCCCCCC(=O)O[C@H](COC(=O)CCCCCCCCCCCCCC)COP(=O)(O)O[C@H]1C(O)C(O)C(O)[C@@H](O)C1O (stereo not given in full) [PI(35:1)],collision cross section (N2),[2]; [M+NH4]+,298.1 Å²
same,collision cross section (N2),[2]; [M-H]-,286.9 Å²
CCCCC/C=C\C/C=C\CCCCCCCCCCCC(=O)O[C@H](COC(=O)CCCCCCCCCCCC)COP(=O)(O)O[C@H]1C(O)C(O)C(O)[C@@H](O)C1O (stereo not given in full) [PI(35:2)],collision cross section (N2),[2]; [M+NH4]+,295.6 Å²
same,collision cross section (N2),[2]; [M-H]-,285.3 Å²
CCCCC/C=C\C/C=C\CCCCCCCCCCCC(=O)O[C@H](COC(=O)CCCCCCC/C=C\CCCCC)COP(=O)(O)O[C@H]1C(O)C(O)C(O)[C@@H](O)C1O (stereo not given in full) [PI(37:3)],collision cross section (N2),[2]; [M+NH4]+,301.4 Å²
same,collision cross section (N2),[2]; [M+Na]+,298.9 Å²
same,collision cross section (N2),[2]; [M-H]-,290.1 Å²
CC/C=C\C/C=C\C/C=C\C/C=C\CCCCC(=O)OC[C@H](COP(=O)(O)O[C@H]1C(O)C(O)C(O)[C@@H](O)C1O)OC(=O)CCCCCCCCCCCCCCCCCC (stereo not given in full) [PI(37:4)],collision cross section (N2),[2]; [M+H]+,298.9 Å²
same,collision cross section (N2),[2]; [M+NH4]+,300.2 Å²
same,collision cross section (N2),[2]; [M+Na]+,297.6 Å²
CCCCCC/C=C\CCCCCCCC(=O)OC[C@H](COP(=O)(O)O[C@H]1C(O)C(O)C(O)[C@@H](O)C1O)OC(=O)CCCCCCCCCCCCCCCCCCCCC (stereo not given in full) [PI(38:1)],collision cross section (N2),[2]; [M-H]-,296.1 Å²
CCCCCCCC/C=C\CCCCCCCCCC(=O)O[C@H](COC(=O)CCCCCCCCCCCCC)COP(=O)(O)OC[C@H](N)C(=O)O [PS(34:1)],collision cross section (N2),[2]; [M+H]+,280 Å²
same,collision cross section (N2),[2]; [M-H]-,273.1 Å²
CCCCCCCCCCCCC=CC[C@@H](O)[C@H](COP(=O)([O-])OCC[N+](C)(C)C)NC(=O)CCCCCCCCCCCCCC [SM(33:1)],collision cross section (N2),[2]; [M+H]+,279.2 Å²
CCCCCCCCCCCCCCCC(=O)N[C@@H](COP(=O)([O-])OCC[N+](C)(C)C)[C@H](O)CCCCCCCCCCCCCCC [SM(34:0)],collision cross section (N2),[2]; [M+HCOO]-,282.3 Å²
same,collision cross section (N2),[2]; [M+H]+,285 Å²
same,collision cross section (N2),[2]; [M+Na]+,284.8 Å²
CCCCCCCCCCCCC=CCC(=O)N[C@@H](COP(=O)([O-])OCC[N+](C)(C)C)[C@H](O)CC=CCCCCCCCCCCCC [SM(34:2)],collision cross section (N2),[2]; [M+H]+,281.4 Å²
CCCCC/C=C\C/C=C\C/C=C\C/C=C\CCCCCC(=O)OC[C@@H](COC(=O)CCCCCCCCCCCCCCC)OC(=O)CCCCCCC/C=C\CCCCCCC [TG(55:5)],collision cross section (N2),[2]; [M+NH4]+,324.6 Å²
CCCCC/C=C\C/C=C\C/C=C\CCCCCCC(=O)O[C@H](COC(=O)CCCC/C=C\C/C=C\C/C=C\CCCCC)COC(=O)CCCCCCCCC/C=C\CCCCCCCCCC [TG(60:7)],collision cross section (N2),[2]; [M+NH4]+,339 Å²
CC/C=C\C/C=C\C/C=C\C/C=C\C/C=C\CCCC(=O)O[C@H](COC(=O)CCCCCCC/C=C\C/C=C\C/C=C\CC)COC(=O)CCCCCCCCC/C=C\CCCCCCCCCC [TG(60:9)],collision cross section (N2),[2]; [M+NH4]+,336 Å²
CC/C=C\C/C=C\C/C=C\C/C=C\C/C=C\C/C=C\CCC(=O)OC[C@@H](COC(=O)CCCCCCC/C=C\C/C=C\C/C=C\CC)OC(=O)CCCCCCCC/C=C\C/C=C\C/C=C\CCCCC [TG(62:12)],collision cross section (N2),[2]; [M+NH4]+,337.5 Å²
